Data from patent US20100197650A1, “COMPOSITIONS AND METHODS OF TREATMENT COMPRISING CEFTAROLINE” (FOREST LABORATORIES HOLDINGS LTD., priority 2008, published 2010).
≈ marks a conversion by molar mass, not a printed value. Like-named read-outs stand apart in the source and are kept apart here. Marks after values point to notes of the source that are not given here.

Tests used:
P. aeruginosa = test: Susceptibility testing MIC/MBC, broth microdilution (Example 2); type: cell-based, Pseudomonas aeruginosa; conditions: for MBC / MIC: Pseudomonas aeruginosa; for MBC: read-out: MBC; for MIC: read-out: MIC
Haemophilus influenzae = test: MIC, broth microdilution (Example 1); type: cell-based; conditions: Haemophilus influenzae, read-out: MIC
Procedure: (§1) Stock solutions of all antibacterial agents were prepared at 80-fold (80×) the final target concentration in the appropriate solvent and the solution was allowed to stand for 60 minutes. All antibacterial agents were in solution under these conditions. The final drug concentrations in the FIC assay plates were set to bracket the MIC value of each agent for each test organism, unless the strain was totally resistant to the test agent.
(§2) The test organisms were originally received from clinical sources, or from the American Type Culture Collection. Upon receipt, the isolates were streaked onto the appropriate growth medium: Chocolate Agar for H. influenzae, Tryptic Soy Agar II (Becton Dickinson, Sparks, Md.) supplemented with 5% defibrinated sheep blood for streptococci, and unsupplemented Tryptic Soy Agar II for all other organisms. Colonies were harvested from these plates and a cell suspension was prepared in Tryptic Soy Broth (Becton Dickinson) containing cryoprotectant. Aliquots were then frozen at −80° C. On the day prior to assay, the frozen seeds of the organisms to be tested in that session were thawed and streaked for isolation onto the appropriate agar medium plates and incubated overnight at 35° C.
(§3) The test medium for H. influenzae was Haemophilus Test Medium. Streptococci were tested in Mueller Hinton II Broth (Becton Dickinson; Lot 6235472) supplemented with 2% lysed horse blood (Cleveland Scientific, Bath, Ohio; Lot H88621). All other organisms were tested in Mueller Hinton II Broth (Becton Dickinson, Lot 6235472). The broth was prepared at 1.05× normal weight/volume to offset the 5% volume of the drugs in the final test plates.
(§4) In order to select the proper test concentrations for each drug combination, minimal inhibitory concentration (MIC) values were first determined using the broth microdilution method previously described (Clinical and Laboratory Standards Institute. Methods for Dilution Antimicrobial Susceptibility Tests for Bacteria That Grow Aerobically; Approved Standard—Seventh Edition. Clinical and Laboratory Standards Institute document M7-A7 [ISBN 1-56238-587-9]. Clinical and Laboratory Standards Institute, 940 West Valley Road, Suite 1400, Wayne, Pa. 19087-1898 USA, 2006).
(§5) The wells of standard 96-well microdilution plates (Falcon 3918) were filled with 150 μL of 100% DMSO using the Multidrop 384. These plates were used to prepare the drug “mother plates” which provided the serial drug dilutions for the drug combination plates. The Biomek 2000 was used to transfer 150 μl of each stock solution (80×) from the wells in Column 1 of a deep well plate to the corresponding wells in Column 1 of the mother plate and to make seven 2-fold serial dilutions. Two mother plates, one for each drug, were combined to form a “checkerboard” pattern by transfer of equal volumes (using a multi-channel pipette) to the drug combination plate. Row H and Column 8 each contained serial dilutions of one of the agents alone for determination of the MIC.
(§6) Plates were stacked 3 high, covered with a lid on the top plate, placed in plastic bags, and incubated at 35° C. for approximately 20 hours. Following incubation, the microplates were removed from the incubator and viewed from the bottom using a ScienceWare plate viewer. Prepared reading sheets were marked for the MIC of drug 1 (row H), the MIC of drug 2 (column 8) and the wells of the growth-no growth interface.

Streptococcus pneumoniae = test: MIC, broth microdilution (Example 1); type: cell-based
Procedure: as §1, §2, §3, §4, §5, §6

Streptococcus pyogenes = test: MIC, broth microdilution (Example 1); type: cell-based; conditions: Streptococcus pyogenes, read-out: MIC
Procedure: as §1, §2, §3, §4, §5, §6

Escherichia coli = test: MIC, broth microdilution (Example 1); type: cell-based
Procedure: as §1, §2, §3, §4, §5, §6

Klebsiella pneumoniae = test: MIC, broth microdilution (Example 1); type: cell-based
Procedure: as §1, §2, §3, §4, §5, §6

[1] = tested on: ESBL-producing Klebsiella pneumoniae; test: Susceptibility testing MIC/MBC, broth microdilution (Example 2); type: cell-based; conditions: for MBC / MIC: Klebsiella pneumoniae; for MBC: read-out: MBC; for MIC: read-out: MIC
ESBL-producing E. coli = test: as above; type: cell-based, Escherichia coli; conditions: for MBC range / MIC range: E. coli (10) clinical isolates; for MBC / MIC: Escherichia coli; for MBC: read-out: MBC; for MIC: read-out: MIC
[2] = tested on: AmpC-derepressed Enterobacter cloacae; test: microbe, parasite or virus in culture; type: cell-based; conditions: for MBC range / MIC range: E. cloacae (10) clinical isolates; for MBC / MIC: Enterobacter cloacae
Pseudomonas aeruginosa = test: MIC, broth microdilution (Example 1); type: cell-based
Procedure: as §1, §2, §3, §4, §5, §6

[3] = P. aeruginosa (20) clinical isolates
[4] = Escherichia coli, E. coli 1587, read-out: MIC
[5] = Escherichia coli, E. coli 2273 (ESBL), read-out: MIC
[6] = Klebsiella pneumoniae, K. pneumoniae 1340, read-out: MIC
[7] = Klebsiella pneumoniae, K. pneumoniae 1461, read-out: MIC
[8] = K. pneumonia (10) clinical isolates

SMILES: C[C@H]1COc2c(N3CCN(C)CC3)c(F)cc3c(=O)c(C(=O)O)cn1c23 [Levofloxacin]
- MIC range (P. aeruginosa; [3]): 0.25 to 32 µg/mL
- MBC (P. aeruginosa; P. aeruginosa isolate no. 796): 2 µg/mL (≈ 5.53 µM)
- MIC (P. aeruginosa; P. aeruginosa isolate no. 796): 1 µg/mL (≈ 2.77 µM)
- MBC (P. aeruginosa; P. aeruginosa isolate no. 956): 1 µg/mL (≈ 2.77 µM)
- MIC (P. aeruginosa; P. aeruginosa isolate no. 956): 0.5 µg/mL (≈ 1.38 µM)
- MBC (P. aeruginosa; P. aeruginosa isolate no. 1019): 1 µg/mL (≈ 2.77 µM)
- MIC (P. aeruginosa; P. aeruginosa isolate no. 1019): 0.5 µg/mL (≈ 1.38 µM)
- MBC (P. aeruginosa; P. aeruginosa isolate no. 1037): 0.5 µg/mL (≈ 1.38 µM)
- MIC (P. aeruginosa; P. aeruginosa isolate no. 1037): 0.25 µg/mL (≈ 0.692 µM)
- MIC (Haemophilus influenzae; H. influenzae 1224): 0.015 µg/mL
- MIC (Haemophilus influenzae; H. influenzae 2797 (BLNAR)): 0.015 µg/mL
- MIC (Haemophilus influenzae; H. influenzae 2798 (BLNAR)): 0.015 µg/mL
- MIC (Haemophilus influenzae; H. influenzae 2799 (BLNAR)): 0.015 µg/mL
- MIC (Streptococcus pneumoniae; S. pneumoniae 0866 (PSSP)): 1 ^ μg/mL
- MIC (Streptococcus pneumoniae; S. pneumoniae 0869 (PSSP)): 1 ^ μg/mL
- MIC (Streptococcus pneumoniae; S. pneumoniae 0880 (PRSP)): >4^a μg/mL
- MIC (Streptococcus pneumoniae; S. pneumoniae 0884 (PRSP)): 1 ^ μg/mL
- MIC (Streptococcus pneumoniae; Streptococcus pneumoniae, PRSP, S. pneumoniae 0880 (PRSP), read-out: MIC): > 4 µg/mL
- MIC (Streptococcus pneumoniae; Streptococcus pneumoniae, PRSP, S. pneumoniae 0884 (PRSP), read-out: MIC): 1 µg/mL
- MIC (Streptococcus pneumoniae; Streptococcus pneumoniae, S. pneumoniae 0866 (PSSP), read-out: MIC): 1 µg/mL
- MIC (Streptococcus pneumoniae; Streptococcus pneumoniae, S. pneumoniae 0869 (PSSP), read-out: MIC): 1 µg/mL
- MIC (Streptococcus pyogenes; S. pyogenes 0717): 0.5 µg/mL
- MIC (Streptococcus pyogenes; S. pyogenes 0722): 0.5 µg/mL
- MIC (Escherichia coli; E. coli 2273 (ESBL)): >4^a μg/mL
- MIC (Escherichia coli; [4]): 0.06 µg/mL
- MIC (Escherichia coli; [5]): > 4 µg/mL
- MIC (Klebsiella pneumoniae; K. pneumoniae 1461): >4^a μg/mL
- MIC (Klebsiella pneumoniae; [6]): 0.06 µg/mL
- MIC (Klebsiella pneumoniae; [7]): > 4 µg/mL
- MBC ([1]; K. pneumonia isolate no. 5427): 2 µg/mL (≈ 5.53 µM)
- MIC ([1]; K. pneumonia isolate no. 5427): 0.25 µg/mL (≈ 0.692 µM)
- MBC ([1]; K. pneumonia isolate no. 5436): 4 µg/mL (≈ 11.1 µM)
- MIC ([1]; K. pneumonia isolate no. 5436): 4 µg/mL (≈ 11.1 µM)
- MBC range (ESBL-producing E. coli): 0.06 to 32 µg/mL
- MIC range (ESBL-producing E. coli): 0.03 to 32 µg/mL
- MBC (ESBL-producing E. coli; E. coli isolate no. 5401): 32 µg/mL (≈ 88.6 µM)
- MIC (ESBL-producing E. coli; E. coli isolate no. 5401): 32 µg/mL (≈ 88.6 µM)
- MBC (ESBL-producing E. coli; E. coli isolate no. 5411): 16 µg/mL (≈ 44.3 µM)
- MIC (ESBL-producing E. coli; E. coli isolate no. 5411): 8 µg/mL (≈ 22.1 µM)
- MBC range [2]: 0.03 to 128 µg/mL
- MIC range [2]: 0.03 to 64 µg/mL
- MBC ([2]; E. cloacae isolate no. 4073): 0.06 µg/mL (≈ 0.166 µM)
- MIC ([2]; E. cloacae isolate no. 4073): 0.06 µg/mL (≈ 0.166 µM)
- MBC ([2]; E. cloacae isolate no. 5420): 0.06 µg/mL (≈ 0.166 µM)
- MIC ([2]; E. cloacae isolate no. 5420): 0.06 µg/mL (≈ 0.166 µM)

SMILES: NCC[C@H](O)C(=O)N[C@@H]1C[C@H](N)[C@@H](O[C@H]2O[C@H](CN)[C@@H](O)[C@H](O)[C@H]2O)[C@H](O)[C@H]1O[C@H]1O[C@H](CO)[C@@H](O)[C@H](N)[C@H]1O [Amikacin]
- MBC range (P. aeruginosa; [3]): 2 to 64 µg/mL
- MIC range (P. aeruginosa; [3]): 2 to 16 µg/mL
- MBC (P. aeruginosa; P. aeruginosa isolate no. 796): 32 µg/mL (≈ 54.6 µM)
- MIC (P. aeruginosa; P. aeruginosa isolate no. 796): 16 µg/mL (≈ 27.3 µM)
- MBC (P. aeruginosa; P. aeruginosa isolate no. 956): 64 µg/mL (≈ 109 µM)
- MIC (P. aeruginosa; P. aeruginosa isolate no. 956): 4 µg/mL (≈ 6.83 µM)
- MBC (P. aeruginosa; P. aeruginosa isolate no. 1019): 4 µg/mL (≈ 6.83 µM)
- MIC (P. aeruginosa; P. aeruginosa isolate no. 1019): 4 µg/mL (≈ 6.83 µM)
- MBC (P. aeruginosa; P. aeruginosa isolate no. 1037): 4 µg/mL (≈ 6.83 µM)
- MIC (P. aeruginosa; P. aeruginosa isolate no. 1037): 2 µg/mL (≈ 3.42 µM)
- MIC (Pseudomonas aeruginosa; P. aeruginosa 2555): 8 µg/mL
- MIC (Pseudomonas aeruginosa; P. aeruginosa 2559): 4 µg/mL
- MIC (Escherichia coli; [4]): 4 µg/mL
- MIC (Escherichia coli; [5]): 8 µg/mL
- MIC (Klebsiella pneumoniae; [6]): 1 µg/mL
- MIC (Klebsiella pneumoniae; [7]): 1 µg/mL
- MBC range [1, 8]: 1 to 128 µg/mL
- MIC range [1, 8]: 1 to 32 µg/mL
- MBC ([1]; K. pneumonia isolate no. 5427): 2 µg/mL (≈ 3.42 µM)
- MIC ([1]; K. pneumonia isolate no. 5427): 2 µg/mL (≈ 3.42 µM)
- MBC ([1]; K. pneumonia isolate no. 5436): 2 µg/mL (≈ 3.42 µM)
- MIC ([1]; K. pneumonia isolate no. 5436): 1 µg/mL (≈ 1.71 µM)
- MBC range (ESBL-producing E. coli): 4 to 64 µg/mL
- MIC range (ESBL-producing E. coli): 1 to 16 µg/mL
- MBC (ESBL-producing E. coli; E. coli isolate no. 5401): 4 µg/mL (≈ 6.83 µM)
- MIC (ESBL-producing E. coli; E. coli isolate no. 5401): 2 µg/mL (≈ 3.42 µM)
- MBC (ESBL-producing E. coli; E. coli isolate no. 5411): 16 µg/mL (≈ 27.3 µM)
- MIC (ESBL-producing E. coli; E. coli isolate no. 5411): 8 µg/mL (≈ 13.7 µM)
- MBC range [2]: 1 to 8 µg/mL
- MIC range [2]: 0.5 to 4 µg/mL
- MBC ([2]; E. cloacae isolate no. 4073): 8 µg/mL (≈ 13.7 µM)
- MIC ([2]; E. cloacae isolate no. 4073): 1 µg/mL (≈ 1.71 µM)
- MBC ([2]; E. cloacae isolate no. 5420): 2 µg/mL (≈ 3.42 µM)
- MIC ([2]; E. cloacae isolate no. 5420): 1 µg/mL (≈ 1.71 µM)
